We go through 35 compounds from patent US8232401B2 (Japan Tobacco Inc., priority 2002, dated 2012).

What is called pIC50 is the negative decadic logarithm of the IC50, by convention in mol/L.

pIC50: −log10 of the molar value.

In this assay the target is T1, HIV integrase (Human immunodeficiency virus type 1 group M subtype B, UniProt P12497, F1332H).
T1 construct: HIV integrase full length gene; made in house; host or cells: Escherichia coli BL21(DE3)
Description: Determination of enzyme (HIV integrase) inhibitory activity (strand transfer, microtiter plate, absorbance at 450 nm). The class given is biochemical, HIV (Human Immunodeficiency Virus (type 1)). The note with it: recombinant HIV integrase (F185H) expressed in E. coli; donor DNA on streptavidin plate, digoxigenin target DNA; 37° C.

With `CCOc1cc(Cc2cccc(Cl)c2F)cc2c(=O)c(C(=O)O)cn(CCO)c12` [Example 3-47, 6-(3-Chloro-2-fluorobenzyl)-8-ethoxy-1-(2-hydroxyethyl)-4-oxo-1,4-dihydroquinoline-3-carboxylic acid], the pIC50 is 8.07.
In the case of `O=C(O)c1cn(C2CCC2)c2ccc(Cc3cccc(Cl)c3Cl)cc2c1=O` [Example 3-12, 1-Cyclobutyl-6-(2,3-dichlorobenzyl)-4-oxo-1,4-dihydroquinoline-3-carboxylic acid], the pIC50 was 7.80.
The same measure for `COc1cc(Cc2cccc(Cl)c2F)cc2c(=O)c(C(=O)O)cn([C@H](CO)C3CCCCC3)c12` [Example 4-44, (S)-6-(3-Chloro-2-fluorobenzyl)-1-(1-cyclohexyl-2-hydroxyethyl)-8-methoxy-4-oxo-1,4-dihydroquinoline-3-carboxylic acid]: 8.62.
The same measure for `O=C(O)c1cn(CCO)c2ccc(Cc3cc(F)ccc3Cl)cc2c1=O` [Example 4-6, 6-(2-Chloro-5-fluorobenzyl)-1-(2-hydroxyethyl)-4-oxo-1,4-dihydroquinoline-3-carboxylic acid]: 6.34.
Take `CCCNc1cc(Cc2cccc(Cl)c2F)cc2c(=O)c(C(=O)O)cn(CCO)c12` [Example 3-54, 6-(3-Chloro-2-fluorobenzyl)-1-(2-hydroxyethyl)-4-oxo-8-propylamino-1,4-dihydroquinoline-3-carboxylic acid]: the pIC50 was 8.19.
For the compound `O=C(O)c1cn(Cc2ccccc2)c2ccc(Cc3cccc(Cl)c3Cl)cc2c1=O` [Example 1-15, 1-Benzyl-6-(2,3-dichlorobenzyl)-4-oxo-1,4-dihydroquinoline-3-carboxylic acid], the pIC50 was 6.64.
The same measure for `COc1cc2c(cc1Cc1cccc(Cl)c1F)c(=O)c(C(=O)O)cn2[C@H](CO)C1CCCCC1` [Example 4-42, (S)-6-(3-Chloro-2-fluorobenzyl)-1-(1-cyclohexyl-2-hydroxyethyl)-7-methoxy-4-oxo-1,4-dihydroquinoline-3-carboxylic acid]: 8.64; for `CC[C@H](C)[C@@H](CO)n1cc(C(=O)O)c(=O)c2cc(Cc3cccc(Cl)c3F)c(OC)cc21` [Example 4-27, 6-(3-Chloro-2-fluorobenzyl)-1-((1S,2S)-1-hydroxymethyl-2-methylbutyl)-7-methoxy-4-oxo-1,4-dihydroquinoline-3-carboxylic acid]: 8.54.
Next, `COC(=O)c1cn(CCO)c2ccc(Cc3cccc(Cl)c3Cl)cc2c1=O` [Example 1-12, 6-(2,3-Dichlorobenzyl)-1-(2-hydroxyethyl)-4-oxo-1,4-dihydroquinoline-3-carboxylic acid methyl ester]: 6.15; `CCNn1cc(C(=O)O)c(=O)c2cc(Cc3cccc(Cl)c3Cl)ccc21` [Example 2-8, 6-(2,3-Dichlorobenzyl)-1-ethylamino-4-oxo-1,4-dihydroquinoline-3-carboxylic acid]: 7.07.
Next, `CC(C)Oc1cc2c(cc1Cc1cccc(Cl)c1F)c(=O)c(C(=O)O)cn2[C@H](CO)C(C)(C)C` [Example 4-20, (S)-6-(3-Chloro-2-fluorobenzyl)-1-[2,2-dimethyl-1-(hydroxymethyl)propyl]-7-isopropyloxy-4-oxo-1,4-dihydroquinoline-3-carboxylic acid]: 8.77; `O=C(O)c1cn(CCCc2ccccc2)c2ccc(Cc3cccc(Cl)c3Cl)cc2c1=O` [Example 1-17, 6-(2,3-Dichlorobenzyl)-1-(3-phenylpropyl)-4-oxo-1,4-dihydroquinoline-3-carboxylic acid]: 7.08; `O=C(O)c1cn(CCO)c2cc(Cl)c(Cc3cccc(Cl)c3Cl)cc2c1=O` [Example 3-21, 7-Chloro-6-(2,3-dichlorobenzyl)-1-(2-hydroxyethyl)-4-oxo-1,4-dihydroquinoline-3-carboxylic acid]: 7.52.
Take `COc1cc(Cc2c(F)ccc(Cl)c2F)cc2c(=O)c(C(=O)O)cn(CCO)c12` [Example 3-37, 6-(3-Chloro-2,6-difluorobenzyl)-1-(2-hydroxyethyl)-8-methoxy-4-oxo-1,4-dihydroquinoline-3-carboxylic acid]: the pIC50 is 7.96.
Turning to `CC(C)Oc1cc2c(cc1Cc1cccc(Cl)c1F)c(=O)c(C(=O)O)cn2[C@H](CO)C(C)C` [Example 4-19, (S)-6-(3-Chloro-2-fluorobenzyl)-1-(1-hydroxymethyl-2-methylpropyl)-7-isopropyloxy-4-oxo-1,4-dihydroquinoline-3-carboxylic acid], the pIC50 was 8.54.
As for `CN(C)n1cc(C(=O)O)c(=O)c2cc(Cc3cccc(Cl)c3Cl)ccc21` [Example 2-6, 6-(2,3-Dichlorobenzyl)-1-dimethylamino-4-oxo-1,4-dihydroquinoline-3-carboxylic acid], the pIC50 was 7.04.
For `O=C(O)c1cn(CCc2ccccc2)c2ccc(Cc3ccccc3Cl)cc2c1=O` [Example 1-65, 6-(2-Chlorobenzyl)-4-oxo-1-phenethyl-1,4-dihydroquinoline-3-carboxylic acid], the pIC50 was 6.92.
The same measure for `O=C(O)c1cn(CCO)c2c(C(F)(F)F)cc(Cc3cccc(Cl)c3F)cc2c1=O` [Example 3-25, 6-(3-Chloro-2-fluorobenzyl)-1-(2-hydroxyethyl)-4-oxo-8-trifluoromethyl-1,4-dihydroquinoline-3-carboxylic acid]: 7.16; for `O=C(O)c1cn(C(CO)CO)c2ccc(Cc3cccc(Cl)c3Cl)cc2c1=O` [Example 3-10, 6-(2,3-Dichlorobenzyl)-1-[2-hydroxy-1-(hydroxymethyl)ethyl]-4-oxo-1,4-dihydroquinoline-3-carboxylic acid]: 7.74.
As to `CCOc1cc2c(cc1Cc1cccc(Cl)c1Cl)c(=O)c(C(=O)O)cn2CCO` [Example 3-20, 6-(2,3-Dichlorobenzyl)-7-ethoxy-1-(2-hydroxyethyl)-4-oxo-1,4-dihydroquinoline-3-carboxylic acid], the pIC50 is 8.00.
Next, `O=C(O)c1cn(CCO)c2cc(OCC3CCCCC3)c(Cc3cccc(Cl)c3F)cc2c1=O` [Example 3-63, 6-(3-Chloro-2-fluorobenzyl)-7-cyclohexylmethoxy-1-(2-hydroxyethyl)-4-oxo-1,4-dihydroquinoline-3-carboxylic acid]: 7.77; `CC(C)Oc1cc(Cc2cccc(Cl)c2F)cc2c(=O)c(C(=O)O)cn([C@H](CO)C3CCCCC3)c12` [Example 4-50, (S)-6-(3-Chloro-2-fluorobenzyl)-1-(1-cyclohexyl-2-hydroxyethyl)-8-isopropyloxy-4-oxo-1,4-dihydroquinoline-3-carboxylic acid]: 8.51; `O=C(O)c1cn(CCCCO)c2ccc(Cc3cccc(Cl)c3Cl)cc2c1=O` [Example 1-21, 6-(2,3-Dichlorobenzyl)-1-(4-hydroxybutyl)-4-oxo-1,4-dihydroquinoline-3-carboxylic acid]: 7.13.
For `O=C(O)c1cn(CCO)c2ccc(Cc3cccc(Cl)c3Cl)c(O)c2c1=O` [Example 3-5, 6-(2,3-Dichlorobenzyl)-5-hydroxy-1-(2-hydroxyethyl)-4-oxo-1,4-dihydroquinoline-3-carboxylic acid], the pIC50 was 7.62.
On to `CSc1ccc(Cl)c(Cc2ccc3c(c2)c(=O)c(C(=O)O)cn3CCO)c1` [Example 1-92, 6-(2-Chloro-5-methylsulfanylbenzyl)-1-(2-hydroxyethyl)-4-oxo-1,4-dihydroquinoline-3-carboxylic acid], for which the pIC50 was 6.55.
On to `O=C(O)c1cn(CCO)c2cc(O)c(Cc3cccc(Cl)c3Cl)cc2c1=O` [Example 3-6, 6-(2,3-Dichlorobenzyl)-7-hydroxy-1-(2-hydroxyethyl)-4-oxo-1,4-dihydroquinoline-3-carboxylic acid], for which the pIC50 was 7.96.
The same measure for `CCOc1cc2c(cc1Cc1cccc(Cl)c1F)c(=O)c(C(=O)O)cn2[C@H](CO)C(C)C` [Example 4-30, (S)-6-(3-Chloro-2-fluorobenzyl)-7-ethoxy-1-(1-hydroxymethyl-2-methylpropyl)-4-oxo-1,4-dihydroquinoline-3-carboxylic acid]: 8.54; for `CS(=O)(=O)CCn1cc(C(=O)O)c(=O)c2cc(Cc3cccc(Cl)c3Cl)ccc21` [Example 1-41, 6-(2,3-Dichlorobenzyl)-1-(2-methanesulfonylethyl)-4-oxo-1,4-dihydroquinoline-3-carboxylic acid]: 6.68; for `O=C(O)c1cn(CCO)c2cc(OCCO)c(Cc3cccc(Cl)c3F)cc2c1=O` [Example 3-76, 6-(3-Chloro-2-fluorobenzyl)-1-(2-hydroxyethyl)-7-(2-hydroxyethyloxy)-4-oxo-1,4-dihydroquinoline-3-carboxylic acid]: 8.07.
The same measure for `CN(n1cc(C(=O)O)c(=O)c2cc(Cc3cccc(Cl)c3Cl)ccc21)S(C)(=O)=O` [Example 2-5, 6-(2,3-Dichlorobenzyl)-1-(N-methanesulfonyl-N-methylamino)-4-oxo-1,4-dihydroquinoline-3-carboxylic acid]: 6.52.
With `CCOc1ccccc1Cc1ccc2c(c1)c(=O)c(C(=O)O)cn2CCO` [Example 4-13, 6-(2-Ethoxybenzyl)-1-(2-hydroxyethyl)-4-oxo-1,4-dihydroquinoline-3-carboxylic acid], the pIC50 is 6.52.
The same measure for `O=C(O)c1cn(CCO)c2ccc(Cc3ccccc3)cc2c1=O` [Example 1-78]: 6.23; for `CC(=O)NCCn1cc(C(=O)O)c(=O)c2cc(Cc3cccc(Cl)c3Cl)ccc21` [Example 1-48, 1-(2-Acetylaminoethyl)-6-(2,3-dichlorobenzyl)-4-oxo-1,4-dihydroquinoline-3-carboxylic acid]: 6.42; for `O=C(O)c1cn(CCCO)c2ccc(Cc3cccc(Cl)c3Cl)cc2c1=O` [Example 1-25, 6-(2,3-Dichlorobenzyl)-1-(3-hydroxypropyl)-4-oxo-1,4-dihydroquinoline-3-carboxylic acid]: 6.80.
As for `CC[C@@H](CO)n1cc(C(=O)O)c(=O)c2cc(Cc3cccc(Cl)c3F)c(SC)cc21` [Example 4-29, (S)-6-(3-Chloro-2-fluorobenzyl)-1-[1-(hydroxymethyl)propyl]-7-methylsulfanyl-4-oxo-1,4-dihydroquinoline-3-carboxylic acid], the negative logarithm of the IC50 (pIC50) is 8.35.
